Test results taken from ChEMBL document CHEMBL1153812, “Hydrolytic cleavage of DNA by urea-bridged macrocyclic polyamines” (Eur J Med Chem, 2009).
Active and inactive are the calls of the source. The calls are words filed in the database; no cut-off is given here.

Assays:
Type in all cases: nucleic-acid assay
[1] = test system: Nucleic Acid; test: Induction of supercoiled Escherichia coli pUC19 DNA cleavage assessed as formation of open-circular DNA at 0.285 mM after 36 hrs by TBARS method in presence of hydroxy radical
[2] = test system: Nucleic Acid; test: Binding affinity to calf thymus duplex DNA assessed as thermal melting temperature at 0.11 mM by UV-visible spectrophotometry; settings: Bos taurus
[3] = test system: Nucleic Acid; test: Induction of supercoiled Escherichia coli pUC19 DNA cleavage assessed as formation of open-circular DNA at 214 uM after 36 hrs by agarose gel electrophoresis
[4] = test system: Nucleic Acid; test: Induction of supercoiled Escherichia coli pUC19 DNA cleavage assessed as formation of open-circular DNA at 357 uM after 36 hrs by agarose gel electrophoresis in presence of hydroxyl radical scavenger t-BuOH
[5] = test system: Nucleic Acid; test: Induction of supercoiled Escherichia coli pUC19 DNA cleavage assessed as formation of open-circular DNA at 357 uM after 36 hrs by agarose gel electrophoresis in presence of […]
[6] = test system: Nucleic Acid; test: Induction of supercoiled Escherichia coli pUC19 DNA cleavage assessed as formation of open-circular DNA at 357 uM after 36 hrs by agarose gel electrophoresis
[7] = test system: Nucleic Acid; test: Binding affinity to calf thymus duplex DNA assessed as change in viscosity of DNA at 20 mM by viscometric analysis; settings: Bos taurus
[8] = test system: Nucleic Acid; test: Induction of supercoiled Escherichia coli pUC19 DNA cleavage assessed as formation of open-circular DNA at 357 uM after 32 hrs by agarose gel electrophoresis
[9] = test system: Nucleic Acid; test: Induction of supercoiled Escherichia coli pUC19 DNA cleavage assessed as formation of open-circular DNA at 286 uM by agarose gel electrophoresis; settings: TDE = time-dependent effect
[10] = test system: Nucleic Acid; test: Induction of supercoiled Escherichia coli pUC19 DNA cleavage assessed as formation of open-circular DNA at 143 uM after 36 hrs by agarose gel electrophoresis
[11] = test system: Nucleic Acid; test: Induction of supercoiled Escherichia coli pUC19 DNA cleavage assessed as formation of open-circular DNA at 286 uM after 36 hrs by agarose gel electrophoresis
[12] = test system: Nucleic Acid; test: Induction of supercoiled Escherichia coli pUC19 DNA cleavage assessed as formation of open-circular DNA at 357 uM after 36 hrs by agarose gel electrophoresis in presence of singlet oxygen scavenger NaN3
[13] = test system: Nucleic Acid; test: Induction of supercoiled Escherichia coli pUC19 DNA cleavage assessed as formation of open-circular DNA at 357 uM after 36 hrs by agarose gel electrophoresis in presence of hydroxyl radical scavenger DMSO
[14] = test system: Nucleic Acid; test: Induction of supercoiled Escherichia coli pUC19 DNA cleavage assessed as formation of open-circular DNA at 71 uM after 36 hrs by agarose gel electrophoresis

Activity [1]	Tm [2] [°C]	Activity [3] [%]	Activity [4]	Activity [5]	Activity [6]	Activity [7]	Activity [8] [%]	Activity [9]	Activity [10] [%]	Activity [11] [%]	Activity [12]	Activity [13]	Activity [14] [%]	SMILES
Active	75.7	72	Active	Active	97%	Active	97	tde	59	89	Active	Active	29	CC(NC(=O)NC(C)C(=O)N1CCNCCNCCNCC1)C(=O)N1CCNCCNCCNCC1 (stereo not given)
–	76.6	–	–	–	Active	Active	–	–	–	–	–	–	–	COC(=O)C(C)NC(=O)NC(C)C(=O)OC (stereo not given)
–	77.6	–	–	–	Active	Active	–	–	–	–	–	–	–	CCNC(=O)NC(C)C(=O)N1CCNCCNCCNCC1 (stereo not given)
